# According to patent publication US20040170653A1, “Tumour peptide antigen produced from human mdm2 proto-oncogene” (priority 2001, published 2004):
# Like-named read-outs stand apart in the source and are kept apart here.
# What was measured:
# HLA-A2.1 = HLA-A2.1 (Homo sapiens, UniProt P04439, D140Y/D185E/D98H/E176V/E277Q/G131W/G231S/I119V/I121R/I166T/I218V/L300P/L318F/N151K/N90K/P208A/P217A/Q86G/Q94H/R138H/R169H/T345S); experiment: Competition test: inhibition of A2.1 binding of peptide p53 264-272, read as p53-specific CTL lysis of loaded EA2 cells; conditions: for A2.1-binding activity (in words): competitive binding test; for inhibition of the A2.1 binding of the competing peptide p53 264-272: EA2 cells with 0.01 μg p53 264-272, 4-hour test
# [1] = system: A2K^b- and CD8×A2K^b transgenic mice; experiment: A2.1-restricted immunogenicity of synthetic peptides after immunization; cytotoxicity test of induced CTL on peptide-loaded T2A2K^b cells; type: in vivo, mouse; conditions: peptide immunization in IFA, in vitro stimulation, 4-hour cytotoxicity test
# T2 cells = experiment: Cytotoxicity test (51Cr release) of hdm2 81-88-specific CTL on peptide-loaded T2 target cells (peptide titration, peptide specificity); type: cell-based, human; conditions: for absolute maximal lysis: peptide titration
# EL4 cells (H-2^b) = experiment: Cytotoxicity test of hdm2 81-88-specific CTL on peptide-loaded A2.1-negative EL4 cells (A2.1 restriction); type: cell-based, mouse
# mature DC = experiment: CTL recognition of activated mature dendritic cells, 6-hour cytotoxicity test; type: cell-based; conditions: cells loaded with peptide 10 μM
# [2] = system: tyrosinase-specific CTL clone IVSB; experiment: CTL recognition of antigen-activated T cells, 6-hour cytotoxicity test; type: cell-based, human; conditions: cells loaded with peptide 10 μM
# Method: FIG. 22: Absence of substantial recognition of antigen-activated T cells. CTL A2 81, CTL CD8×A2 K^b 81, allo-A2.1-reactive CTL and CTL CD8×A2 K^b Flu M1 were tested as effector cells under the E:T ratios indicated in a 6-hour cytotoxicity test against tyrosinase-specific CTL clone IVSB (●) and the same cells loaded with hdm2 81-88 peptide (10 μM) (▴). The target cells were treated with the anti-A2.1 monoclonal antibody PA2.1 as shown (∘).
# An A2.1-positive CTL clone “IVSB” having specificity for the tyrosinase peptide 369-377 was produced and made available using technically customary methods.
# The lytic reactivity of the effector cells against various target cells was checked in a ^51Cr release test (Theobald et al., 1995). T2 and T2A2 K^b cells were employed as target cells for peptide titration tests. 1-5 Mio target cells were labeled for 60-90 min with 150 μCi of Na (^51Cr) 04 (1 mCi/ml) (NEN Life Science, Belgium). […] The cells were then centrifuged off (1300 rpm, 5° C., 9 min), the supernatant (0.1 ml/well) was taken off and the ^51Cr release was measured using a gamma-“counter” (Canberra Packard, Dreieich). The percentage specific lysis (SL) was calculated according to the following formula: [formula] […]
# resting T cells = experiment: CTL recognition of resting lymphohemopoietic cells, 6-hour cytotoxicity test; type: cell-based; conditions: cells loaded with peptide 10 μM
# resting B cells = experiment: as above; type: cell-based; conditions: cells loaded with peptide 10 μM
# PBMC = experiment: as above; type: cell-based; conditions: cells loaded with peptide 10 μM
substance,measurement,setting,value
"hdm2 101-110: intermediately binding synthetic hdm2 peptide, residues 101-110 (TMIYRNLVVV; UniProt Q00987 101-110, looked up, fragment)",A2.1-binding activity (in words),HLA-A2.1,intermediately binding
same,A2.1-restricted and peptide-specific CTL response,[1],demonstrated
"tyrosinase 369-377: A2.1-binding peptide tyrosinase 369-377, positive control [reference compound]",inhibition of the A2.1 binding of the competing peptide p53 264-272,HLA-A2.1; 3 μg test peptide,100%
same,inhibition of the A2.1 binding of the competing peptide p53 264-272,HLA-A2.1; 10 μg test peptide,100%
"hdm2 33-41: synthetic hdm2 peptide, residues 33-41 (LLLKLLKSV; UniProt Q00987 33-41, looked up, fragment)",inhibition of the A2.1 binding of the competing peptide p53 264-272,HLA-A2.1; 10 μg test peptide,100%
same,A2.1-binding activity (in words),HLA-A2.1,strongly binding
same,A2.1-restricted and peptide-specific CTL response,[1],demonstrated
"LLGDLFGV [hdm2 81-88, oligopeptide, amino acid positions 81 to 88 of the hdm2 proto-oncoprotein]",inhibition of the A2.1 binding of the competing peptide p53 264-272,HLA-A2.1; 10 μg test peptide,100%
same,A2.1-binding activity (in words),HLA-A2.1,strongly binding
same,A2.1-restricted and peptide-specific CTL response,[1],demonstrated
same,EC50,"T2 cells; CTL line A2 81, E:T 10:1, 4-hour test, read-out: peptide concentration at half-maximal lysis of the target cells",0.069 nM
same,EC50,"T2 cells; CTL line CD8×A2K^b 81, E:T 10:1, 4-hour test, read-out: peptide concentration at half-maximal lytic activity",0.036 nM
same,lysis of peptide-loaded T2 cells by both hdm2 81-88-specific CTL lines,"T2 cells; CTL lines A2 81 and CD8×A2 K^b 81, 4-hour test",lyzed efficiently
same,EC50,"T2 cells; I° CTL A2 81, 6-hour test, read-out: peptide concentration at half-maximal lysis of the target cells",0.95 nM
same,absolute maximal lysis,T2 cells; I° CTL A2 81,62%
same,EC50,"T2 cells; I° CTL CD8×A2 K^b 81, 6-hour test, read-out: peptide concentration at half-maximal lysis of the target cells",0.2 nM
same,absolute maximal lysis,T2 cells; I° CTL CD8×A2 K^b 81,100%
same,recognition of peptide-loaded EL4 cells by CTL induced by hdm2 81-88,"EL4 cells (H-2^b); CTL from immunized A2K^b- or CD8×A2K^b-transgenic mice, 2 μg peptide",not recognized
same,lytic activity of hdm2 81-88-reactive CTL lines on peptide-loaded EL4 cells,EL4 cells (H-2^b); CTL lines A2 81 and CD8×A2 K^b 81,no lytic activity at all
same,CTL lysis after loading with exogenous peptide,mature DC,reconstituted
same,CTL lysis after loading with exogenous peptide,[2],reconstitute
same,CTL recognition after loading with exogenous peptide,resting T cells,reconstituted
same,CTL recognition after loading with exogenous peptide,resting B cells,reconstituted
same,CTL recognition after loading with exogenous peptide,PBMC,reconstituted
"hdm2 48-57: synthetic hdm2 peptide, residues 48-57 (YTMKEVLFYL; UniProt Q00987 48-57, looked up, fragment)",inhibition of the A2.1 binding of the competing peptide p53 264-272,HLA-A2.1; 10 μg test peptide,100%
"hdm2 80-88: synthetic hdm2 peptide, residues 80-88; contaminated with hdm2 81-88 (DLLGDLFGV; UniProt Q00987 80-88, looked up, fragment)",inhibition of the A2.1 binding of the competing peptide p53 264-272,HLA-A2.1; 10 μg test peptide,100%
same,A2.1-binding activity (in words),HLA-A2.1,strongly binding
same,A2.1-restricted and peptide-specific CTL response,[1],demonstrated
same,recognition of HPLC-purified peptide by hdm2 81-88-specific CTL,"T2 cells; HPLC fraction 23, T2 cells, CTL CD8×A2 K^b 81, E:T 20:1",cross-reactivity
